Patent publication US6693083B2, “Conjugates targeted to the interleukin-2 receptor” (Watson Pharmaceuticals, Inc., priority 1997, dated 2004)
Entries after “also recorded” stand apart in the source; their conditions may differ. Like-named read-outs stand apart in the source and are kept apart here. Where no end group is shown, it is not given here. PEG = not defined here; ADR = adriamycin

Key:
[1] = tested on: IL-2-induced proliferation of murine splenocytes; assay: Inhibition of IL-2-induced proliferation of murine splenocytes (trypan blue viable cell count); assay type: cell-based, mouse; conditions: for specific binding to the IL-2 receptor: concluded from inhibition of IL-2-induced proliferation (Example 20)
Description: The in vitro effects of IL-2-receptor-targeted conjugates on IL-2-induced proliferation of murine splenocytes was examined.
A sterile splenocyte suspension was prepared as follows. Spleens were aseptically removed from male C57 BL/6 mice and placed in sterile tissue culture medium (RPMI plus 10% fetal calf serum). The spleens were teased apart and gently aspirated using a Pasteur pipet. The resulting spleen cell suspension was then filtered through sterile gauze and centrifuged at 150×g for 10 minutes at 20° C. […] After 30 seconds, an equal volume of tissue culture medium was added to the suspension to restore isotonicity. The cell suspension was again centrifuged at 150×g for 10 minutes at 20° C., and the resulting cell pellet was washed once using tissue culture medium. The washed cell pellet was finally resuspended in tissue culture medium, and cell density was adjusted to 5×10^6 cells/ml.
To the wells of a 96-well assay plate (Falcon MICROTEST III), 50 μl volumes of the splenocyte suspension were added. Competitor (conjugate) solutions were prepared and diluted in tissue culture medium and added to the wells of the assay plate in 25 μl volumes. To control wells, 25 μl of tissue culture medium was added. […] To the wells of the assay plate, 25 μl of either tissue culture medium or a solution containing recombinant human IL-2 (Pharmingen) at a concentration of 20 ng/ml (in tissue culture medium) was added.
Final results were quantitated as follows. Viable cell counts were performed for each separate well of the assay plate using the trypan blue exclusion method. Trypan blue is taken up and imparts a blue color to dead cells. Briefly, an aliquot of cells was twice diluted in 0.4% trypan blue stain (Sigma Chemical Co., St. Louis, Mo.) and incubated for 5 minutes before counting with a hemacytometer and an inverted microscope. The percentage of viable cells was calculated as the number of unstained cells per unit volume divided by the total number of stained and unstained cells×100. Cell counts for each duplicate set of wells were averaged, and cell proliferation was calculated as percent change from control cells using the following formula: [formula]
Percent inhibition of IL-2 induced proliferation was calculated as follows. [formula]

mouse CTLL-2 cells = assay: In vitro cytotoxic activity against mouse CTLL-2 cells (MTS cell viability assay)
Description: CTLL-2 cells express the IL-2 high affinity receptor. […] Thereafter, cell viability was assessed by a colorimetric method using the tetrazolium compound MTS (3-(4,5-dimethylthiazol-2-yl)-5-(3-carboxymethoxyphenyl)-2-(4-sulfophenyl)-2H-tetrazolium, inner salt) and an electron coupling reagent, PMS (phenazine methosulfate). A. J. Cory et al., 3 Cancer Commun. […] MTS is bioreduced by living cells into a soluble formazan product. The absorbence of the formazan at 490 nm can be measured directly from 96 well assay plates without additional processing. The quantity of formazan product as measured by the absorbence at 490 nm is directly proportional to the number of living cells in culture. Reagents for the MTS assay were obtained from Promega Corp. (Madison, Wis.). […] The plate was then further incubated at 37° C. in a humidified, 5% CO2 atmosphere for 4 hours. The absorbence of each well was then measured at 490 nm with an EL311 Microplate Autoreader (Bio-Tek Instruments). The mean absorbence for each treatment was then calculated, and the percent cytotoxicity was determined using the formula: [formula]
wherein AS represents the mean absorbence for each treatment and AC represents mean absorbence of the control treatment, i.e. cells not exposed to a conjugate.

B10.RIII mice = assay: Treatment of collagen-induced arthritis (CIA) in B10.RIII mice; conditions: 2 mg/kg i.p.; for weight loss: alternate day treatment, observed for 84 days, PBS control about 5%±5%
Description: B10.RIII mice were injected with CII (200 μg) emulsified with complete Freund's adjuvant (CFA; 200 μg H37Ra). At day 21, mice were boosted with 100 μg of CII, randomized for CIA severity (13/group), and an alternate day treatment protocol was begun.

[2] = 48 hours incubation, MTS assay, compared by adriamycin concentration

Molecule	specific binding to the IL-2 receptor [1]	cytotoxicity against CTLL-2 T cells (FIG. 1) (mouse CTLL-2 cells; [2])	weight loss (B10.RIII mice)	other results
PEG-TT23-ADR ({PEG}-TGLNRILLGFLG-{ADR}; reading uncertain)	specifically bind to the IL-2 receptor	kills such CTLL-2 T cells at concentrations much lower than that required for PEG-GFLG-ADR; also recorded: requires higher concentrations of adriamycin than unconjugated adriamycin	about 3%±6%	arthritis severity (cumulative daily arthritis scores) (B10.RIII mice; alternate day treatment from day 21, observed for 84 days, compared to PBS control (P≦0.02)): significantly greater number of mice with only minimum arthritis
PEG-TT23: prepared according to Example 1 except that no adriamycin was conjugated; PEG coupled to peptide TT23 (SEQ ID NO:22) (TGLNRILLGFLG; not fully specified (N-terminus); also: PEG conjugate, attachment site not given here)	specifically binds to the IL-2 receptor	–	–	inhibition of IL-2-induced proliferation of murine splenocytes (FIG. 2) ([1]; recombinant human IL-2, 48 hours, trypan blue exclusion): very effectively inhibits proliferation
TGLNRILLGFLG [peptide TT23]	–	–	–	amount needed to achieve similar levels of inhibition, relative to PEG-TT23 ([1]; IL-2-induced proliferation of murine splenocytes): about 100 fold
PEG-Gly-Phe-Leu-Gly-ADR (GFLG; PEG and adriamycin conjugated; OTHER INFORMATION: Synthetic Construct) [PEG-GFLG-ADR, reference compound]	–	much lower than that required for PEG-GFLG-ADR	about 10%±8%	–
COc1cccc2c1C(=O)c1c(O)c3c(c(O)c1C2=O)C[C@@](O)(C(=O)CO)C[C@@H]3O[C@H]1C[C@H](N)[C@H](O)[C@H](C)O1 [adriamycin, reference compound]	–	–	–	cytotoxicity against CTLL-2 T cells (FIG. 1) (mouse CTLL-2 cells): rapidly diffuses into the cells and kills them
